Measured values from article PMC8588310, “Identification and Preliminary Structure-Activity Relationship Studies of 1,5-Dihydrobenzo[e][1,4]oxazepin-2(3H)-ones That Induce Differentiation of Acute Myeloid Leukemia Cells In Vitro” (Molecules, 2021).
≈ marks a conversion by molar mass, not a printed value.

Key:
[1] = Semi-thermodynamic aqueous solubility; format: physicochemical; conditions: thermodynamic from solid
Method: (§1) Determination of semi-thermodynamic solubility, metabolic stability in S9 fraction, Caco-2 permeability and PPB were performed by Cyprotex Ltd. (www.cyprotex.com, accessed on 22 October 2021) using their standard assays and as described on their website.

HL-60 cells = experiment: CD11b expression assay by flow cytometry in HL-60 cells; format: cell-based, human; conditions: for Activity in the CD11b assay / EC50: HL-60 cells; for Activity in the CD11b assay: concentration-response; for EC50: Homo sapiens, HL-60, 96 h, 4-day (96 h) treatment, CD11b upregulation, read-out: EC50 [nM], %CD11b response in HL60 cells; for LipE (lipophilic efficiency): LipE = -LogEC50-cLogP, EC50 of CD11b assay in HL-60
Method: Cells were treated with 1000 structurally diverse small molecules selected from a commercial library. A single point testing concentration of 10 µM was used. After 4 days, cells were stained with a CD11b antibody and analysed using flow cytometry. Compounds upregulating CD11b expression greater than 10% in at least three of the cell lines were considered as potential hits. Hit confirmation was undertaken as follows: first, the hit was re-tested at 10 µM both with the CD11b antibody and an isotype control to account for nonspecific binding. Secondly, the effect of the hit on cell proliferation and viability was evaluated through staining with DAPI to evaluate the number of dead cells, and with acridine orange to detect total cell numbers. Thirdly, the induction of differentiation caused by the compounds was confirmed through morphology assessment with Giemsa staining. Finally, the molecule was resynthesised and fully characterised to confirm structural authenticity. This fresh sample was then retested in the CD11b assay to generate a concentration-response curve. The study of proliferation and morphology was performed on a panel of six cell lines: HL-60, THP-1, OCI-AML3, KG-1, Kasumi-1 and ME-1.
Thus, structure-activity relationship studies were initiated, where the potency of the new analogues was evaluated through concentration-response testing using the CD11b assay in HL-60 cells. Lipophilic efficiency (LipE), which also accounts for lipophilicity, was also used to compare the quality of the analogues. Even though multiple parameters can influence activity in a cell-based assay, LipE is a useful guide to compare analogues.
PE mouse-anti-human-CD11b/Mac-1 (ICRF44, Cat 555388) and PE-mouse-IgG1-κ-isotype control (MOPC-21, Cat 555749) were purchased from BD Bioscience. Cells were suspended in 100 μL growth media (RPMI + 10% FBS + 1% L-glutamine) at a density of 2 × 10^4 cells/well of a V-bottom 96 well plate (Corning, Cat 3894) and grown for 96 h in the presence of compound at the required concentration. After 96 h, the plate was centrifuged, media was removed, and cells were resuspended in 50 µL of blocking buffer (IMDM, no phenol red + 10% FBS) containing 2.5 μL of either CD11b or isotype control antibody and incubated on ice in the dark for 20 min. Cells were washed twice in 200 μL of staining buffer (IMDM, no phenol red + 1% FBS) before being resuspended in 200 μL of staining buffer containing 1 μg/mL of DAPI to help identify dead cells. Flow cytometry data were collected on an Attune NxT and analysed using the Attune NxT software (Life Technologies).

[2] = Metabolic stability in mouse S9 fraction; format: in vitro ADME; conditions: ER = Clint/species flow rate (mice: 90 mL/min/kg)
Method: as §1
[22] Extraction ratio (ER) is calculated as the measured intrinsic clearance over the hepatic blood flow of each species (90 mL/min/kg for mice). It has the advantage over other parameters (half-life, clearance) that it is independent of the species used

[3] = Single dose PK study in male CD-1 mice; format: in vivo, mouse
Description: In order to undertake a preliminary assessment of the pharmacokinetic (PK) profile of this compound class, three compounds were deemed to have sufficient intrinsic potency, solubility and in vitro metabolic stability properties to progress into a single dose in vivo PK study. […] […] […] Nonetheless, the clearance of the three compounds was high to moderate, and at this dose the in vitro EC50 was not reached.
Male CD-1 mice were used for the PK studies, with three for each treatment. […] Blood concentration was measured by LC-MS/MS over 24 h.

[4] = aqueous (buffer or water not specified)
[5] = mouse, whole blood, single dose 3 mg/kg po, blood
[6] = aqueous (not further specified)

| Compound | solubility thermodynamic [1, 4] | EC50 (HL-60 cells) | ER in mS9 (extraction ratio) [2] | LipE (lipophilic efficiency) (HL-60 cells) | further results |
| --- | --- | --- | --- | --- | --- |
| CS(=O)(=O)Nc1cccc(-c2ccc3c(c2)NC(=O)COC3)c1 [Compound 6, N-(3-(2-Oxo-1,2,3,5-tetrahydrobenzo[e][1,4]oxazepin-8-yl)phenyl)methanesulfonamide] | > 200 µM | > 10000 nM | – | – | Activity in the CD11b assay (HL-60 cells): completely inactive |
| CN1C(=O)COCc2ccc(-c3cccc(NS(C)(=O)=O)c3)cc21 [Compound 7, N-(3-(1-Methyl-2-oxo-1,2,3,5-tetrahydrobenzo[e][1,4]oxazepin-8-yl)phenyl)methanesulfonamide] | > 200 µM | > 30000 nM | 0.07 | – | Activity in the CD11b assay (HL-60 cells): completely inactive |
| CCN1C(=O)COCc2ccc(-c3cccc(NS(C)(=O)=O)c3)cc21 [Compound 8, N-(3-(1-Ethyl-2-oxo-1,2,3,5-tetrahydrobenzo[e][1,4]oxazepin-8-yl)phenyl)methanesulfonamide] | > 200 µM | 6200 nM | 0.25 | 3.8 | – |
| CC(C)CN1C(=O)COCc2ccc(-c3cccc(NS(C)(=O)=O)c3)cc21 [Compound 10, N-(3-(1-Isobutyl-2-oxo-1,2,3,5-tetrahydrobenzo[e][1,4]oxazepin-8-yl)phenyl)methanesulfonamide] | > 200 µM | 740 nM | 0.51 | 4.0 | – |
| CS(=O)(=O)Nc1cccc(-c2ccc3c(c2)N(C2CCCC2)C(=O)COC3)c1 [Compound 12, N-(3-(1-Cyclopentyl-2-oxo-1,2,3,5-tetrahydrobenzo[e][1,4]oxazepin-8-yl)phenyl)methanesulfonamide] | 124 µM (≈ 49.7 µg/mL) | 650 nM | 0.83 | 4.0 | – |
| CS(=O)(=O)Nc1cccc(-c2ccc3c(c2)N(C2COC2)C(=O)COC3)c1 [Compound 13, N-(3-(1-(Oxetan-3-yl)-2-oxo-1,2,3,5-tetrahydrobenzo[e][1,4]oxazepin-8-yl)phenyl)methanesulfonamide] | 10 µM (≈ 3.88 µg/mL) | > 10000 nM | 0.08 | – | – |
| CS(=O)(=O)Nc1cccc(-c2ccc3c(c2)N(c2ccccc2)C(=O)COC3)c1 [Compound 14, N-(3-(2-Oxo-1-phenyl-1,2,3,5-tetrahydrobenzo[e][1,4]oxazepin-8-yl)phenyl)methanesulfonamide] | 14 µM (≈ 5.72 µg/mL) | 220 nM | – | 3.9 | bioavailability ([3]; mouse, whole blood, 3 mg/kg po vs 0.33 mg/kg iv): 15%; half-life ([3]; mouse, whole blood, single dose 3 mg/kg po and 0.33 mg/kg iv, blood, route of parameter not given): 4.1 h; Cmax [3, 5]: 44 ng/mL; Tmax [3, 5]: 1.2 h; Vd/F ([3]; mouse, whole blood, single dose 3 mg/kg po, blood, read-out: Vz/F): 100 L/kg; Clobs ([3]; single dose 0.33 mg/kg iv, blood): 43 mL/min/kg; Clobs/F ([3]; single dose 3 mg/kg po, blood): 286 mL/min/kg; Clearance ([3]; single dose iv 0.33 mg/kg and po 3 mg/kg): lowest clearance |
| CC(C)N1C(=O)COCc2ccc(-c3ccc(NS(C)(=O)=O)cc3)cc21 [Compound 26, N-(4-(1-Isopropyl-2-oxo-1,2,3,5-tetrahydrobenzo[e][1,4]oxazepin-8-yl)phenyl)methanesulfonamide] | – | > 30000 nM | – | – | – |
| CC(C)N1C(=O)COCc2ccc(-c3cccc(S(C)(=N)=O)c3)cc21 (stereo not shown) [Compound 27, 1-Isopropyl-8-(3-(S-methylsulfonimidoyl)phenyl)-1,5-dihydrobenzo[e][1,4]oxazepin-2(3H)-one] | – | > 30000 nM | – | – | Activity in the CD11b assay (HL-60 cells): removed the activity |
| COC(=O)Nc1cccc(-c2ccc3c(c2)N(C(C)C)C(=O)COC3)c1 [Compound 28, Methyl (3-(1-isopropyl-2-oxo-1,2,3,5-tetrahydrobenzo[e][1,4]oxazepin-8-yl)phenyl)carbamate] | – | 500 nM | 0.31 | 3.7 | solubility thermodynamic [1, 6]: 88 µM (≈ 31.2 µg/mL); Activity in the CD11b assay (HL-60 cells): equally active |
| CC(C)N1C(=O)COCc2ccc(-c3cccc(N)c3)cc21 [Compound 29, 8-(3-Aminophenyl)-1-isopropyl-1,5-dihydrobenzo[e][1,4]oxazepin-2(3H)-one] | – | 3300 nM | – | 3.5 | – |
| CC(C)N1C(=O)COCc2ccc(-c3cccc(N(C)C)c3)cc21 [Compound 30, 8-(3-(Dimethylamino)phenyl)-1-isopropyl-1,5-dihydrobenzo[e][1,4]oxazepin-2(3H)-one] | – | 12000 nM | – | 2.4 | – |
| COc1cccc(-c2ccc3c(c2)N(C(C)C)C(=O)COC3)c1 [Compound 31, 1-Isopropyl-8-(3-methoxyphenyl)-1,5-dihydrobenzo[e][1,4]oxazepin-2(3H)-one] | – | > 10000 nM | – | – | – |
| CC(C)N1C(=O)COCc2ccc(-c3cccc(C(=O)O)c3)cc21 [Compound 32, 3-(1-Isopropyl-2-oxo-1,2,3,5-tetrahydrobenzo[e][1,4]oxazepin-8-yl)benzoic acid] | – | > 30000 nM | – | – | – |
| CCCS(=O)(=O)Nc1cccc(-c2ccc3c(c2)N(C(C)C)C(=O)COC3)c1 [Compound 33, N-(3-(1-Isopropyl-2-oxo-1,2,3,5-tetrahydrobenzo[e][1,4]oxazepin-8-yl)phenyl)propane-1-sulfonamide] | – | 6800 nM | – | 2.5 | Decrease in potency compared to OXS007002 (HL-60 cells; CD11b EC50 in HL-60, vs OXS007002): 10 fold |
| CC(C)N1C(=O)COCc2ccc(-c3cccc(NS(=O)(=O)C(F)(F)F)c3)cc21 [Compound 34, 1,1,1-Trifluoro-N-(3-(1-isopropyl-2-oxo-1,2,3,5-tetrahydrobenzo[e][1,4]oxazepin-8-yl)phenyl)methanesulfonamide] | – | > 10000 nM | – | – | – |
| CC(C)N1C(=O)COCc2ccc(-c3ccc(F)c(NS(C)(=O)=O)c3)cc21 [Compound 35, N-(2-Fluoro-5-(1-isopropyl-2-oxo-1,2,3,5-tetrahydrobenzo[e][1,4]oxazepin-8-yl)phenyl)methanesulfonamide] | – | 1600 nM | 0.21 | 4.0 | solubility thermodynamic [1, 6]: > 200 µM |
| Cc1ccc(-c2ccc3c(c2)N(C(C)C)C(=O)COC3)cc1NS(C)(=O)=O [Compound 36, N-(5-(1-Isopropyl-2-oxo-1,2,3,5-tetrahydrobenzo[e][1,4]oxazepin-8-yl)-2-methylphenyl)methanesulfonamide] | – | 600 nM | 1 | 4.1 | solubility thermodynamic [1, 6]: > 200 µM |
| COc1cc(NS(C)(=O)=O)cc(-c2ccc3c(c2)N(C(C)C)C(=O)COC3)c1 [Compound 38, N-(3-(1-Isopropyl-2-oxo-1,2,3,5-tetrahydrobenzo[e][1,4]oxazepin-8-yl)-5-methoxyphenyl)methanesulfonamide] | – | > 30000 nM | – | – | – |
| CC(C)N1C(=O)COCc2ccc(-c3cncc(NS(C)(=O)=O)c3)cc21 [Compound 39, N-(5-(1-Isopropyl-2-oxo-1,2,3,5-tetrahydrobenzo[e][1,4]oxazepin-8-yl)pyridin-3-yl)methanesulfonamide] | – | > 30000 nM | – | – | Activity in the CD11b assay (HL-60 cells): abolished activity |
| CC(C)N1C(=O)COCc2ccc(Oc3cccc(NS(C)(=O)=O)c3)cc21 [Compound 40, N-(3-((1-Isopropyl-2-oxo-1,2,3,5-tetrahydrobenzo[e][1,4]oxazepin-8-yl)oxy)phenyl)methanesulfonamide] | – | > 30000 nM | – | – | Activity in the CD11b assay (HL-60 cells): abolished activity |
